# Measured values reported in patent US11690847B2, “Combinations of 15-PGDH inhibitors with corticosteroids and/or TNF inhibitors and uses thereof” (CASE WESTERN RESERVE UNIVERSITY, priority 2016, dated 2023).
# Tests used:
# DSS induced colitis [1] = experiment: dextran sodium sulfate (DSS) induced colitis, 2% DSS days 1-7, SW033291 versus vehicle; assay type: in vivo, FVB male mice
# Method: In the study, 8-12 week old FVB male mice were fed with 2% DSS in drinking water for days 1-7, and then switched to normal drinking water beginning on day 8, and continued through day 22. […] Clinical scoring (body weight, rectal bleeding, stool consistency) was recorded daily, endoscopic scoring (ulcer number, mucosal thickening, and vascular pattern) was assessed on days 8, 11, 15. Mice were sacrificed on days 1, 8, 15 and 22 for assessment of colon length, colon weight, ulcer number, ulcer area, and crypt damage.
# The Disease Activity Index is calculated as an equally weighted average of the change from baseline weight, the consistency of stool, and the presence of rectal bleeding, with each component normalized to span an identical numerical range.
# In addition to the gross visual inspection and scoring of colitis activity by the MEICS index, full length colons of mice were formalin fixed and paraffin embedded, and microscopic scoring of crypt damage was performed using the 0-4 severity scale of Cooper H S. Et al., Lab Invest. 1993; 69:238-249. For this analysis, the colons were divided into 3 segments of proximal, middle, and distal colon, each approximately 1.6 cm in length, with each segment was further subdivided into 4 sections each approximately 4 mm in length. For each section the crypt damage severity score was multiplied by the length in mm of the damaged area, creating a 0-16 cryptitis severity index. An average cryptitis severity index was calculated for each segment (proximal, middle, and distal colon), and the summed whole colon cryptitis severity index was determined on a scale of 0-48 for each mouse colon.
# Mice were injected with BrdU at 100 mg/kg IP 3 hours before sacrifice and then full length colons were formalin fixed and embedded in paraffin. S-phase cells, that have incorporated BrdU into DNA, were visualized by immuno-fluorescent staining of 5 μm thick sections with an antibody that detects the BrdU. Colonic crypts were visualized by immuno-fluorescent staining with an antibody to the epithelial marker E-Cadherin. […] Red immune-fluorescence identifies BrdU positive nuclei, and green immune-fluorescence identifies E-Cadherin positive colonocytes. The number of BrdU positive cell per crypt is determined by counting the number of dual labeled red and green cells per average crypt. Green only cells that are not in S-phase are not counted, and red only cells, that are likely stromal cells outside of crypts, are also not counted. […] The graph depicts the sum of the average number of BrdU positive cells per crypt in the distal colon plus the average number of BrdU positive cells per crypt middle colons of control (Cn), […] treated (Tx), and 15-PGDH knockout mice (KO) on day 1, day 8, and day 15 of the DSS treatment protocol.
# [2] = stability on incubation with hepatocyte cell lines; assay type: in vitro ADME
# [3] = stability on incubation with hepatocyte extracts; assay type: in vitro ADME
# DSS induced colitis [4] = experiment: DSS colitis treatment study: (+) SW033291, dexamethasone or combination from day 8; assay type: in vivo, mice; settings: (+) SW033291 5 mpk IP twice daily, dexamethasone 0.06 mpk IP daily
# [5] = stability on incubation with human liver extracts; assay type: in vitro ADME
# [6] = stability on incubation with mouse liver extracts; assay type: in vitro ADME
# [7] = stability on incubation with rat liver extracts; assay type: in vitro ADME
compound,measurement,setting,value
CCCC[S+]([O-])c1sc2nc(-c3cccs3)cc(-c3ccccc3)c2c1N (centres unmarked) [SW033291],average change from baseline weight versus control,"DSS induced colitis [1]; 5 mg/kg IP twice daily, 22 days, FIG. 1",greater weight at all time points
same,weight gain after washout of DSS versus control,"DSS induced colitis [1]; 5 mg/kg IP twice daily, P=0.001, FIG. 1",faster weight gain
same,Wt @sacrifice,DSS induced colitis [1]; Baseline,25.9 ± 0.7 gm
same,Wt @sacrifice,DSS induced colitis [1]; Day 8,26.4 ± 0.5 gm
same,Wt @sacrifice,DSS induced colitis [1]; Day 15,25.2 ± 0.9 gm
same,Wt @sacrifice,DSS induced colitis [1]; Day 22,28.2 ± 0.5 gm
same,body weight versus vehicle control (in words),DSS induced colitis [1]; day 22,greater body weight
same,colon length versus vehicle control (in words),DSS induced colitis [1]; day 22,greater colon lengths
same,ulcer formation prevented (colonoscopy),"DSS induced colitis [1]; days 8, 11, 15, versus control, FIG. 4A",two-thirds
same,MEICS score versus vehicle,"DSS induced colitis [1]; days 8, 11 and 15, FIG. 7",significantly less colitis activity
CCCC[S+]([O-])c1sc2nc(-c3cccs3)cc(-c3ccccc3)c2c1N (centres unmarked) [formula (IX)],chemical stability when incubated with hepatocyte cell lines,[2],chemically stable
same,chemical stability when incubated with hepatocyte extracts,[3],chemically stable
"C[C@@H]1C[C@H]2[C@@H]3CCC4=CC(=O)C=C[C@]4(C)[C@@]3(F)[C@@H](O)C[C@]2(C)[C@@]1(O)C(=O)CO [dexamethasone, reference compound]",percent decrease in total DAI (relative disease reduction),"DSS induced colitis [4]; area under the DAI curve, FIG. 17B",15%
"CCCC[S+]([O-])c1sc2nc(-c3cccs3)cc(-c3ccccc3)c2c1N (single isomer, unassigned; (+)) [(+) SW033291]",daily weights (weight loss),"DSS induced colitis [4]; days 1-17, from day 8, FIG. 15",some amelioration of weight loss
CCCC[S+]([O-])c1sc2nc(-c3nccs3)cc(-c3cnc(C)n3C)c2c1N (centres unmarked) [formula (X)],chemical stability when incubated with liver extracts,[5],chemically stable
same,chemical stability when incubated with liver extracts,[6],chemically stable
same,chemical stability when incubated with liver extracts,[7],chemically stable
